According to patent US20110230659A1, “CYCLOBUTYL PURINE DERIVATIVE, ANGIOGENESIS PROMOTING AGENT, LUMEN FORMATION PROMOTING AGENT, NEUROCYTE GROWTH PROMOTING AGENT, AND DRUG” (NATIONAL UNIVERSITY CORPORATION KAGAWA UNIVERSITY, priority 2008, published 2011):

Tests used:
JNK = JNK activation (phosphorylation) immunoblot in HUVEC; format: cell-based, human; details: 100 μmol/l; 0 to 60 minutes
Method: (§1) First, to a HuMedia-EB2 medium (Kurabo) to which 2 v/v % inactivated fetal bovine serum (FBS) had been added, 2-Cl—C.OXT-A was added so that its concentration became 100 μmol/l. Thus, a medium was prepared. Using the medium, human umbilical vein endothelial cells (HUVEC) were cultured for predetermined periods (0, 10, 20, 30, 45, and 60 minutes).
(§2) After the culture, cells were collected. The collected cells were lysed by adding a cell lysis buffer (SDS-lysis buffer) thereto, and heat-denatured at 95° C. for 5 minutes. The solubilized protein in an amount corresponding to 5 v/v % of the heat-denatured cell lysate was subjected to electrophoresis using 10% SDS-polyacrylamide gel, whereby the solubilized protein was transferred onto a nitrocellulose membrane (Amersham Biosciences). […]
(§3) The enzymes were visualized with SuperSignal (registered trademark) West Pico Chemiluminescent Substrate (Pierce), and detected by being exposed to RX—U X-ray film (FUJIFILM Corporation). From the detected bands, the respective phosphoenzymes and total enzymes were quantified using an NIH image software. Furthermore, the relative value (−fold) of each phosphoenzyme was calculated by substituting the measured value of the phosphoenzyme into the following equation (III).

p38 = p38 activation (phosphorylation) immunoblot in HUVEC; format: cell-based, human; details: 100 μmol/l; 0 to 60 minutes
Method: as §1, §2, §3

MEK = MEK phosphorylation immunoblot in HUVEC; format: cell-based, human; details: 100 μmol/l; 15 minutes after the addition
Method: as §1
After the culture, cells were collected. The collected cells were lysed by adding a cell lysis buffer (SDS-lysis buffer) thereto, and heat-denatured at 95° C. for 5 minutes. […]
The enzymes were visualized with SuperSignal (registered trademark) West Pico Chemiluminescent Substrate (Pierce), and detected by being exposed to RX—U X-ray film (FUJIFILM Corporation). From the detected bands, the respective phosphoenzymes and total enzymes were quantified using an NIH image software. Furthermore, the relative value (−fold) of each phosphoenzyme was calculated by substituting the measured value of the phosphoenzyme into the following equation (III). […]
In the present example, the effect of 2-Cl—C.OXT-A used in Example 1 on the phosphorylation of MEK was examined. MEK is a protein kinase involved in the angiogenesis signal transduction pathway and located upstream of ERK measured in Example 3, and acts to promote angiogenesis. […]

[1] = system: rat adrenal medulla-derived cell line PC12; test: Differentiation of PC12 cells, morphological change (micrographs); format: cell-based; details: 2-Cl—C.OXT-A at 50 μmol/l and 100 μmol/l; sixth day of culture
Method: In the present example, using rat adrenal medulla-derived cell line PC12, which is neurocyte model cells, obtained from the RIKEN BioResource Center, the effect of 2-Cl—C.OXT-A of Example 1 on the differentiation of PC12 cells was examined.
Three samples were prepared by adding additives shown in Table 5 below to PBS so as to achieve predetermined concentrations. Also, an evaluation medium was prepared by adding each sample or PBS to DMEM (no serum) so that its concentration became 10 v/v %. Furthermore, as a control medium, a medium containing only DMEM (no serum) was prepared. […] On the sixth day of the culture, the cells were photographed under a microscope, and the AChE activity was measured according to the Ellman's method (Ellman, G. L., et al., Biochem. Pharmacol., 7, pp. 88-95, (1961)). Specifically, the AChE activity was measured in the following manner. […] The sample solution, 75 μl of 10 mmol/l DTNB, and 3.0 ml of 0.1 mol/l phosphate buffer solution (pH 8.0) were added to a […] for absorbance measurement, and finally, 50 μl of 100 mmol/l acetylthiocholine was added to cause a reaction. The absorbance of the reaction solution at 412 nm was measured for 5 minutes from immediately after the addition of the ace tylthiocholine. From the thus-measured absorbances, the amount of increase in absorbance (C) per minute was determined. […]

Nc1nc(Cl)nc2c1ncn2C1CC(CO)C1CO (stereo not drawn) [2-Cl—C.OXT-A, 6-amino-2-chloro-9-[trans-trans-2,3-bis(hydroxymethyl)cyclobutyl]purine]
amount of pJNK (JNK): not changed
amount of pp 38 (p38): not changed
relative value (−fold) of pMEK (MEK): about 3.5 fold
morphological change of PC12 cells (axon extension) [1]: cells from which linear axons extend were observed
